From patent publication US20250145594A1, “MODULATORS OF THE INTEGRATED STRESS PATHWAY” (Calico Life Sciences LLC, priority 2020, published 2025)
pEC50: −log10 of the molar value.

tested on: ATF4 luciferase reporter in HEK293T cells; assay: ATF4-Luc assay (in vitro model of VWMD); assay type: cell-based, human; conditions: Homo sapiens, HEK-293T, 7 h, HEK293T cells carrying the ATF4 luciferase reporter, 1 μg/mL tunicamycin, One Glo luminescence
Procedure, shortened: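 Stable HEK293T line expressing firefly luciferase behind the human ATF4 5′-UTR, treated with 1 μg/mL tunicamycin plus compound for 7 hours. Luminescence read with One Glo; EC50 determined.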

`COc1ccc2cn(C34CC(NC(=O)[C@H]5C[C@@H](O)c6cc(Cl)c(F)cc6O5)(C3)C4)nc2c1` [Compound 504, (2R,4R)-6-chloro-7-fluoro-4-hydroxy-N-[3-(6-methoxy-2H-indazol-2-yl)bicyclo[1.1.1]pentan-1-yl]-3,4-dihydro-2H-1-benzopyran-2-carboxamide] and `COc1ccc2nn(C34CC(NC(=O)[C@H]5C[C@@H](O)c6cc(Cl)c(F)cc6O5)(C3)C4)cc2c1` [Compound 505, (2R,4R)-6-chloro-7-fluoro-4-hydroxy-N-[3-(5-methoxy-2H-indazol-2-yl)bicyclo[1.1.1]pentan-1-yl]-3,4-dihydro-2H-1-benzopyran-2-carboxamide] cannot be ordered by pEC50: over 8.00 for the first, over 8.00 for the second.

`COc1ccc2nn(C34CC(NC(=O)[C@H]5C[C@@H](O)c6cc(Cl)c(F)cc6O5)(C3)C4)cc2n1` [Compound 506, (2R,4R)-6-chloro-7-fluoro-4-hydroxy-N-[3-(5-methoxy-2H-pyrazolo[4,3-b]pyridin-2-yl)bicyclo[1.1.1]pentan-1-yl]-3,4-dihydro-2H-1-benzopyran-2-carboxamide] and `COc1ccc2nn(C34CC(NC(=O)[C@H]5C[C@@H](O)c6cc(Cl)c(Cl)cc6O5)(C3)C4)cc2c1` [Compound 507, (2R,4R)-6,7-dichloro-4-hydroxy-N-[3-(5-methoxy-2H-indazol-2-yl)bicyclo[1.1.1]pentan-1-yl]-3,4-dihydro-2H-1-benzopyran-2-carboxamide] cannot be ordered by pEC50: over 8.00 for the first, over 8.00 for the second.

`COc1ccc2nn([C@H]3CC[C@H](NC(=O)[C@H]4C[C@@H](O)c5cc(Cl)ccc5O4)CC3)cc2n1` [Compound 508, (2R,4R)-6-chloro-4-hydroxy-N-[(1r,4R)-4-(5-methoxy-2H-pyrazolo[4,3-b]pyridin-2-yl)cyclohexyl]-3,4-dihydro-2H-1-benzopyran-2-carboxamide] and `O=C(N[C@H]1CC[C@H](n2cc(OCC(F)(F)F)cn2)CC1)[C@H]1C[C@@H](O)c2cc(Cl)ccc2O1` [Compound 524, (2R,4R)-6-chloro-4-hydroxy-N-{(1r,4R)-4-[4-(2,2,2-trifluoroethoxy)-1H-pyrazol-1-yl]cyclohexyl}-3,4-dihydro-2H-1-benzopyran-2-carboxamide] fall in the same range of pEC50: 7.30 to 8.00 for the first, 7.30 to 8.00 for the second.

`O=C(NC12CC(n3cc4cc(OC(F)(F)F)ccc4n3)(C1)C2)[C@H]1C[C@@H](O)c2cc(Cl)ccc2O1` [Compound 509, (2R,4R)-6-chloro-4-hydroxy-N-{3-[5-(trifluoromethoxy)-2H-indazol-2-yl]bicyclo[1.1.1]pentan-1-yl}-3,4-dihydro-2H-1-benzopyran-2-carboxamide] and `COCc1ccc2nn(C34CC(NC(=O)[C@H]5C[C@@H](O)c6cc(Cl)ccc6O5)(C3)C4)cc2c1` [Compound 510, (2R,4R)-6-chloro-4-hydroxy-N-{3-[5-(methoxymethyl)-2H-indazol-2-yl]bicyclo[1.1.1]pentan-1-yl}-3,4-dihydro-2H-1-benzopyran-2-carboxamide] fall in the same range of pEC50: 7.30 to 8.00 for the first, 7.30 to 8.00 for the second.

`O=C(NC12CC(n3cc4c(n3)CN(C(=O)COC(F)(F)F)C4)(C1)C2)[C@H]1C[C@@H](O)c2cc(Cl)c(F)cc2O1` [Compound 511, (2R,4R)-6-chloro-7-fluoro-4-hydroxy-N-(3-{5-[(trifluoromethoxy)acetyl]-5,6-dihydropyrrolo[3,4-c]pyrazol-2(4H)-yl}bicyclo[1.1.1]pentan-1-yl)-3,4-dihydro-2H-1-benzopyran-2-carboxamide] and `O=C(NC12CC(n3cc4c(n3)CN(CCOC(F)(F)F)C4)(C1)C2)[C@H]1C[C@@H](O)c2cc(Cl)c(F)cc2O1` [Compound 512, (2R,4R)-6-chloro-7-fluoro-4-hydroxy-N-(3-{5-[2-(trifluoromethoxy)ethyl]-5,6-dihydropyrrolo[3,4-c]pyrazol-2(4H)-yl}bicyclo[1.1.1]pentan-1-yl)-3,4-dihydro-2H-1-benzopyran-2-carboxamide] fall in the same range of pEC50: 7.30 to 8.00 for the first, 7.30 to 8.00 for the second.

`O=C(NC12CC(n3cc(CCCOC(F)(F)F)cn3)(C1)C2)[C@H]1C[C@@H](O)c2cc(C(F)(F)F)ccc2O1` [Compound 513, (2R,4R)-4-hydroxy-N-(3-{4-[3-(trifluoromethoxy)propyl]-1H-pyrazol-1-yl}bicyclo[1.1.1]pentan-1-yl)-6-(trifluoromethyl)-3,4-dihydro-2H-1-benzopyran-2-carboxamide] and `O=C(NC12CC(n3cc(CCCOC(F)(F)F)cn3)(C1)C2)[C@H]1C[C@@H](O)c2cc(Cl)c(F)cc2O1` [Compound 514, (2R,4R)-6-chloro-7-fluoro-4-hydroxy-N-(3-{4-[3-(trifluoromethoxy)propyl]-1H-pyrazol-1-yl}bicyclo[1.1.1]pentan-1-yl)-3,4-dihydro-2H-1-benzopyran-2-carboxamide] cannot be ordered by pEC50: over 8.00 for the first, over 8.00 for the second.

`O=C(NC12CC(n3cc(CCOC(F)(F)F)cn3)(C1)C2)[C@H]1C[C@@H](O)c2cc(Cl)c(F)cc2O1` [Compound 515, (2R,4R)-6-chloro-7-fluoro-4-hydroxy-N-(3-{4-[2-(trifluoromethoxy)ethyl]-1H-pyrazol-1-yl}bicyclo[1.1.1]pentan-1-yl)-3,4-dihydro-2H-1-benzopyran-2-carboxamide] and `O=C(NC12CC(n3cc(CCCC(F)(F)F)cn3)(C1)C2)[C@H]1C[C@@H](O)c2cc(Cl)c(F)cc2O1` [Compound 520, (2R,4R)-6-chloro-7-fluoro-4-hydroxy-N-{3-[4-(4,4,4-trifluorobutyl)-1H-pyrazol-1-yl]bicyclo[1.1.1]pentan-1-yl}-3,4-dihydro-2H-1-benzopyran-2-carboxamide] fall in the same range of pEC50: 7.30 to 8.00 for the first, 7.30 to 8.00 for the second.

`O=C(NC12CC(n3cc(CCCOC(F)(F)F)nn3)(C1)C2)[C@H]1C[C@@H](O)c2cc(Cl)ccc2O1` [Compound 516, (2R,4R)-6-chloro-4-hydroxy-N-(3-{4-[3-(trifluoromethoxy)propyl]-1H-1,2,3-triazol-1-yl}bicyclo[1.1.1]pentan-1-yl)-3,4-dihydro-2H-1-benzopyran-2-carboxamide] and `O=C(NC12CC(n3cc(COCCOC(F)(F)F)nn3)(C1)C2)[C@H]1C[C@@H](O)c2cc(Cl)ccc2O1` [Compound 522, (2R,4R)-6-chloro-4-hydroxy-N-[3-(4-{[2-(trifluoromethoxy)ethoxy]methyl}-1H-1,2,3-triazol-1-yl)bicyclo[1.1.1]pentan-1-yl]-3,4-dihydro-2H-1-benzopyran-2-carboxamide] cannot be ordered by pEC50: over 8.00 for the first, over 8.00 for the second.

First: O=C(NC12CC(n3cc(OCCCC(F)(F)F)cn3)(C1)C2)[C@H]1C[C@@H](O)c2cc(Cl)ccc2O1 [Compound 517, (2R,4R)-6-chloro-4-hydroxy-N-{3-[4-(4,4,4-trifluorobutoxy)-1H-pyrazol-1-yl]bicyclo[1.1.1]pentan-1-yl}-3,4-dihydro-2H-1-benzopyran-2-carboxamide]
Second: CC(F)(F)CCCOc1cnn(C23CC(NC(=O)[C@H]4C[C@@H](O)c5cc(Cl)ccc5O4)(C2)C3)c1 [Compound 521, (2R,4R)-6-chloro-N-(3-{4-[(4,4-difluoropentyl)oxy]-1H-pyrazol-1-yl}bicyclo[1.1.1]pentan-1-yl)-4-hydroxy-3,4-dihydro-2H-1-benzopyran-2-carboxamide]
The pEC50 of the first is higher: over 8.00 for the first, 7.30 to 8.00 for the second. The first is the more potent here.

`O=C(NC12CC(n3cc(OCCOC(F)(F)F)cn3)(C1)C2)[C@H]1CNc2cc(Cl)ccc2O1` [Compound 518, (2R)-6-chloro-N-(3-{4-[2-(trifluoromethoxy)ethoxy]-1H-pyrazol-1-yl}bicyclo[1.1.1]pentan-1-yl)-3,4-dihydro-2H-1,4-benzoxazine-2-carboxamide] and `O=C(NC12CC(n3cc(OCCOC(F)(F)F)cn3)(C1)C2)[C@@H]1CNc2cc(Cl)ccc2O1` [Compound 519, (2S)-6-chloro-N-(3-{4-[2-(trifluoromethoxy)ethoxy]-1H-pyrazol-1-yl}bicyclo[1.1.1]pentan-1-yl)-3,4-dihydro-2H-1,4-benzoxazine-2-carboxamide] fall in the same range of pEC50: 7.30 to 8.00 for the first, 7.30 to 8.00 for the second.

Compared with `O=C(N[C@H]1CC[C@H](n2cc(OCCOC(F)(F)F)cn2)CC1)[C@H]1C[C@@H](O)c2cc(F)ccc2O1` [Compound 523, (2R,4R)-6-fluoro-4-hydroxy-N-[(1r,4R)-4-{4-[2-(trifluoromethoxy)ethoxy]-1H-pyrazol-1-yl}cyclohexyl]-3,4-dihydro-2H-1-benzopyran-2-carboxamide], `O=C(N[C@H]1CC[C@H](n2cc(OCCCC(F)(F)F)cn2)CC1)[C@H]1C[C@@H](O)c2cc(Cl)ccc2O1` [Compound 526, (2R,4R)-6-chloro-4-hydroxy-N-{(1r,4R)-4-[4-(4,4,4-trifluorobutoxy)-1H-pyrazol-1-yl]cyclohexyl}-3,4-dihydro-2H-1-benzopyran-2-carboxamide] is lower in pEC50: over 8.00 for the first, 7.30 to 8.00 for the second. The first is the more potent here.

`O=C(NC12CC(c3ccnc(OCCOC(F)(F)F)n3)(C1)C2)[C@H]1C[C@@H](O)c2cc(Cl)ccc2O1` [Compound 525, (2R,4R)-6-chloro-4-hydroxy-N-(3-{2-[2-(trifluoromethoxy)ethoxy]pyrimidin-4-yl}bicyclo[1.1.1]pentan-1-yl)-3,4-dihydro-2H-1-benzopyran-2-carboxamide] and `O=C(NC12CC(c3cnn(CCCOC(F)(F)F)c3)(C1)C2)[C@H]1C[C@@H](O)c2cc(Cl)ccc2O1` [Compound 528, (2R,4R)-6-chloro-4-hydroxy-N-(3-{1-[3-(trifluoromethoxy)propyl]-1H-pyrazol-4-yl}bicyclo[1.1.1]pentan-1-yl)-3,4-dihydro-2H-1-benzopyran-2-carboxamide] fall in the same range of pEC50: 7.30 to 8.00 for the first, 7.30 to 8.00 for the second.

Compared with `O=C(N[C@H]1CC[C@H](n2cc(OCCCC(F)(F)F)cn2)CC1)[C@H]1C[C@@H](O)c2cc(Cl)c(F)cc2O1` [Compound 527, (2R,4R)-6-chloro-7-fluoro-4-hydroxy-N-((1r,4R)-4-[4-(4,4,4-trifluorobutoxy)-1H-pyrazol-1-yl]cyclohexyl)-3,4-dihydro-2H-1-benzopyran-2-carboxamide], `O=C(NC12CC(n3cc(C[C@H]4C[C@H](OC(F)(F)F)C4)cn3)(C1)C2)[C@H]1C[C@@H](O)c2cc(Cl)ccc2O1` [Compound 529, (2R,4R)-6-chloro-4-hydroxy-N-[3-(4-{[(1r,3S)-3-(trifluoromethoxy)cyclobutyl]methyl}-1H-pyrazol-1-yl)bicyclo[1.1.1]pentan-1-yl]-3,4-dihydro-2H-1-benzopyran-2-carboxamide] is lower in pEC50: over 8.00 for the first, 7.30 to 8.00 for the second. The first is the more potent here.
